Laboratory results as given in patent publication US10155740B2 (F.I.S.—FABBRICA ITALIANA SINTETICI S.P.A., priority 2016, dated 2018).
“Also recorded” adds a separate entry of the source. Where two headings read alike, the source gives them in different places.

Key:
[1] = Relative stability of crystal forms from preparation tests by suspension in solvent; assay type: physicochemical; conditions: suspension in solvent (slurrying) tests
Protocol: The crystal form of Pomalidomide, named Form M, can be prepared by suspension of the form O under stirring for a night in isopropanol (slurrying) after seeding with Form B.
An alternative method for the preparation of Form M prescribes suspending the form O under stirring for four days (slurrying) in dioxane and seeding with Form A, as described in the present experimental part.
1 g of Pomalidomide Form O prepared as in Example 1, was suspended in 20 ml of isopropanol, seeded with crystals of Pomalidomide Form B and stirred overnight at room temperature, giving after filtration and drying, the new Pomalidomide Form M as crystalline powder.

[2] = Moisture stability test of Form M (RH 100%, XRPD); assay type: physicochemical; conditions: 100% relative humidity, one night, room temperature
Protocol: Pomalidomide Form M was subjected to a moisture stability test. 100 mg of Pomalidomide Form M, prepared as described above, were maintained for one night at 100% relative humidity (RH 100%), at room temperature and analyzed by XRPD.

[3] = Preliminary solubility study of Pomalidomide Form O in a range of solvents; assay type: physicochemical; conditions: for solubility: thermodynamic from solid
Protocol: A preliminary study of the solubility of Pomalidomide Form O was performed in a range of solvents and under the operating conditions given in the following table 5: […]

[4] = 37° C., cited from earlier work
[5] = cited from earlier work
[6] = pH 1.2, 4.5 and 6.8, cited from earlier work

Structure (SMILES): Nc1cccc2c1C(=O)N(C1CCC(=O)NC1=O)C2=O (stereo not shown) [Pomalidomide Form M]
- relative stability of crystal form [1]: higher stability than both Form B and Form O
- hygroscopicity / water take-up [2]: did not take-up any water; also recorded: non-hygroscopic

Structure (SMILES): Nc1cccc2c1C(=O)N(C1CCC(=O)NC1=O)C2=O (racemic) [Pomalidomide Form O]
- solubility in AcOiBu ([3]; RT): >80 vol RT;
- solubility in Anisole ([3]; RT): >80 vol. RT;
- solubility in CHCl3 ([3]; RT): >80 vol. RT;
- solubility in DMF ([3]; RT): 26 vol.
- solubility in DMSO ([3]; RT): 6 vol.
- solubility in Dioxane ([3]; RT): >80 vol. RT
- solubility in Et2O ([3]; RT): >80 vol. RT;
- solubility in MIBK ([3]; RT): >80 vol. RT;
- solubility in MeNO2 ([3]; RT): >80 vol. RT;
- solubility in NMP ([3]; RT): 8 vol.
- solubility ([3]; ethanol, organic solvent or mixture, RT, read-out: solubility in EtOH): < 1000 µg/mL
- solubility in AcOiBu ([3]; reflux): >80 vol.
- solubility in Anisole ([3]; reflux): >80 vol.
- solubility in CHCl3 ([3]; reflux): >80 vol.
- solubility in Dioxane ([3]; reflux): <80 vol.
- solubility in Et2O ([3]; reflux): >80 vol.
- solubility in MIBK ([3]; reflux): >80 vol.
- solubility in MeNO2 ([3]; reflux): <80 vol. reflux
- solubility ([3]; water, RT, read-out: solubility in H2O): < 1000 µg/mL

Structure (SMILES): Nc1cccc2c1C(=O)N(C1CCC(=O)NC1=O)C2=O (racemic) [Pomalidomide, (R,S)-4-Amino-2-(2,6-dioxo-3-piperidinyl)-isoindol-1,3-dione]
- Pomalidomide solubility after 24 hours ([4]; pH 1.2 (0.05N HCl)): 15.0 µg/mL
- Pomalidomide solubility after 24 hours ([4]; pH 4.5 (0.05M acetato)): 14.6 µg/mL
- Pomalidomide solubility after 24 hours ([4]; pH 6.8 (0.05M fosfato)): 13.2 µg/mL
- solubility in organic solvents ([5]; absolute ethanol, ethyl acetate, heptane, methanol, 2-propanol, toluene): very slightly soluble
- solubility in organic solvents ([5]; acetone, acetonitrile, methylene chloride, methyl ethyl ketone, THF): slightly soluble
- solubility of dose in 250 ml of aqueous medium ([6]; clinical dose of 4 mg): is not
- solubility of dose in 250 ml of aqueous medium ([6]; dose of 2 mg): soluble
